{
  "source": "patent US20040219105A1",
  "about": "“Human hookworm model and method for maintaining human hookworm in a non-human primate” (priority 2003, published 2004)",
  "test_system": "whole blood basophils",
  "test": "Whole blood basophil histamine release (Histamine Assay Kit)",
  "type": "cell-based, marmoset (Callithrix jacchus)",
  "details": "whole blood of hookworm-infected animals; 5 out of 6 animals",
  "experimental": "Furthermore, whole blood basophils collected from the animals were challenged for their ability to release histamine. One hundred (100) μl of whole blood was collected from the primates into heparinized tubes and the volume was made up to 500 μl using PIPES buffer (0.01 M Piperazine-N′N-bis[2-ethaneculfonic acid], 0.14 M sodium acetate, 5 mM potassium acetate, 0.1% glucose, 1 mM CaCl2 and 0.03% human serum albumin, pH 7.4). Spontaneous histamine release was assessed following incubation for 1 h at 37° C., while total histamine release was assessed when 50 μl of whole blood in 450 μl dH2O was freeze-thawed three times. […] Histamine released in each whole blood challenge was detected using a Histamine Assay Kit (Hycor Biomedical Ltd.). […] Antibody binding was visualised by the addition of 100 μl of 1 mg/ml of p-nitrophenyl phosphate (pNPP) substrate The plates were developed for 1 h at 37° C. and the absorbance measured at 405 nm using a Dynex MRX absorbance microplate reader (DYNEX Technologies, Chantilly, Va.). For all samples and calibrators the percentage binding was determined by the following: [formula]\nA standard curve was constructed by plotting the Percentage Binding against concentration for each histamine calibrator, and the levels of histamine in each challenge were determined from this curve.",
  "data": [
    {"substance": "calreticulin", "values": [
      {"measurement": "basophil histamine release", "result": "significant histamine release"}
    ]}
  ]
}
